Patent publication US20190322676A1, “CERAMIDE GALACTOSYLTRANSFERASE INHIBITORS FOR THE TREATMENT OF DISEASE” (BioMarin Pharmaceutical Inc., priority 2016, published 2019)
pIC50: −log10 of the molar value. Counter-ions that a name gives are not always drawn.

molecular target: T1, human CGT (ceramide galactosyltransferase), CHO/CGT lysate (Homo sapiens, UniProt Q16880); experiment: CGT enzyme assay, RapidFire/MS/MS readout (Table 1 ranges with one asterisk *); assay type: biochemical; details: RapidFire method (range with one asterisk *)
T1 construct: Full-length human CGT cDNA was cloned into the BamH1/Xho1 site of pcDNA3.1 (+); expressed in transfected cells; host or cells: Chinese hamster ovary (CHO) cells; lysate prepared with M-PER
T1 sequence (Q16880 21-541): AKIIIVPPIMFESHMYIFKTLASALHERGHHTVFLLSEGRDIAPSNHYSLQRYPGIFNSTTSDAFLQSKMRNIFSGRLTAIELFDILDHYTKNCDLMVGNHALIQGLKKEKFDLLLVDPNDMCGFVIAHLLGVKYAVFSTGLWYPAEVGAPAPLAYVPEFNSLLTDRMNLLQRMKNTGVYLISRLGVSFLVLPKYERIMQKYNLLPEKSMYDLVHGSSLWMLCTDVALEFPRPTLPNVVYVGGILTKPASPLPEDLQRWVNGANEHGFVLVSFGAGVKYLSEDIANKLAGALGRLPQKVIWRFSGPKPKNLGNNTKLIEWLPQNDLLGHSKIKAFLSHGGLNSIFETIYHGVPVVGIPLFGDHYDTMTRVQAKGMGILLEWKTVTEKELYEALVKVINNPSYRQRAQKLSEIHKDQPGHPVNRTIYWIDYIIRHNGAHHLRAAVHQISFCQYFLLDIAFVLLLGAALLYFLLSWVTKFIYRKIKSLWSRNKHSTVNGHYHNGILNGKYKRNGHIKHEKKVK
Summary of the method: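 Lysate (4 μg) of CHO cells transfected with full-length human CGT incubated 1 h at 37 °C with compound (0.001–50 μM) in pH 7.2 HEPES buffer with 10 μM C6-NBD-dihydro-ceramide, 17.5 μM UDP-galactose, Mg2+/Mn2+, CHAPS, BSA, 0.5% DMSO; ** set also contained 0.01% Tween 80. Product quantified by RapidFire/MS/MS, normalized to internal standard; IC50 from sigmoidal variable-slope fits.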

First: CN([C@H](C(=O)N1C2CCC1CC(N)C2)C(F)(F)c1ccc(-c2ccccc2)cc1)S(=O)(=O)c1ccc2cc(OC3CCCC3)ccc2c1 (stereo partly drawn) [Compound 49-1, N-((2R)-1-([1,1′-biphenyl]-4-yl)-3-(3-amino-8-azabicyclo[3.2.1]octan-8-yl)-1,1-difluoro-3-oxopropan-2-yl)-6-(cyclopentyloxy)-N-methylnaphthalene-2-sulfonamide]
Second: CN([C@H](C(=O)N1C2CCC1CC(N)C2)C(F)(F)c1cccc(Oc2ccccc2)c1)S(=O)(=O)c1ccc2cc(OC3CCCC3)ccc2c1 (stereo partly drawn) [Compound 111-1, N-((2R)-3-(3-amino-8-azabicyclo[3.2.1]octan-8-yl)-1,1-difluoro-3-oxo-1-(3-phenoxyphenyl)propan-2-yl)-6-(cyclopentyloxy)-N-methylnaphthalene-2-sulfonamide trifluoroacetate]
The pIC50 of the first is lower: 5.00 to 6.00 for the first, greater than 6.00 for the second.

NC1CCN(C(=O)[C@@H](NS(=O)(=O)c2ccc3cc(OC4CCCC4)ccc3c2)C(F)(F)c2ccc(Oc3ccccc3)cc2)CC1 [Compound 61-1, (R)—N-(3-(4-aminopiperidin-1-yl)-1,1-difluoro-3-oxo-1-(4-phenoxyphenyl)propan-2-yl)-6-(cyclopentyloxy)naphthalene-2-sulfonamide] and CCCCOc1cccc(C(F)(F)[C@H](NS(=O)(=O)c2ccc3cc(OC4CCCC4)ccc3c2)C(=O)N2CCC(N)CC2)c1 [Compound 83-1, (R)—N-(3-(4-aminopiperidin-1-yl)-1-(3-butoxyphenyl)-1,1-difluoro-3-oxopropan-2-yl)-6-(cyclopentyloxy)naphthalene-2-sulfonamide trifluoroacetate] cannot be ordered by pIC50: greater than 6.00 for the first, greater than 6.00 for the second.

Compared with CC(C)Oc1ccc2cc(S(=O)(=O)N[C@@H](C(=O)N3C4CCC3CC(N)C4)C(F)(F)c3ccc(-c4ccccc4)cc3)ccc2c1 (stereo partly drawn) [Compound 31-2, N-((2S)-1-([1,1′-biphenyl]-4-yl)-3-(3-amino-8-azabicyclo[3.2.1]octan-8-yl)-1,1-difluoro-3-oxopropan-2-yl)-6-isopropoxynaphthalene-2-sulfonamide trifluoroacetate], CC(C)N([C@@H](C(=O)N1C2CCC1CC(N)C2)C(F)(F)c1ccc(Br)cc1)S(=O)(=O)c1ccc2cc(OC3CCCC3)ccc2c1 (stereo partly drawn) [Compound 76-2, N-((2S)-3-(3-amino-8-azabicyclo[3.2.1]octan-8-yl)-1-(4-bromophenyl)-1,1-difluoro-3-oxopropan-2-yl)-6-(cyclopentyloxy)-N-isopropylnaphthalene-2-sulfonamide] is lower in pIC50: 4.52 to 5.00 for the first, 4.00 to 4.52 for the second.

Compared with NC1CCN(C(=O)[C@H](NS(=O)(=O)c2ccc(OCC3CCCCC3)cc2)C(F)(F)c2ccc(C(F)(F)F)cc2)CC1 [Compound 72-2, (S)—N-(3-(4-aminopiperidin-1-yl)-1,1-difluoro-3-oxo-1-(4-(trifluoromethyl)phenyl)propan-2-yl)-4-(cyclohexylmethoxy)benzenesulfonamide], COc1cc(C(F)(F)[C@H](NS(=O)(=O)c2ccc3cc(OC4CCCC4)ccc3c2)C(=O)N2CCC(N)CC2)ccc1Cl [Compound 123-1, (R)—N-(3-(4-aminopiperidin-1-yl)-1-(4-chloro-3-methoxyphenyl)-1,1-difluoro-3-oxopropan-2-yl)-6-(cyclopentyloxy)naphthalene-2-sulfonamide] is higher in pIC50: 4.00 to 4.52 for the first, greater than 6.00 for the second.

CN([C@H](C(=O)N1C2CCC1CC(N)C2)C(F)(F)c1ccc(Br)cc1)S(=O)(=O)c1ccc2nn(CC3CCCC3)cc2c1 (stereo partly drawn) [Compound 78-1, N-((2R)-3-(3-amino-8-azabicyclo[3.2.1]octan-8-yl)-1-(4-bromophenyl)-1,1-difluoro-3-oxopropan-2-yl)-2-(cyclopentylmethyl)-N-methyl-2H-indazole-5-sulfonamide] and NC1CC2CCC(C1)N2C(=O)[C@@H](NC(=O)[C@@H](O)c1ccc2cc(OC3CCCC3)ccc2c1)C(F)(F)c1ccc(Br)cc1 (stereo partly drawn) [Compound 41-3, (2S)—N-((2R)-3-(3-amino-8-azabicyclo[3.2.1]octan-8-yl)-1-(4-bromophenyl)-1,1-difluoro-3-oxopropan-2-yl)-2-(6-(cyclopentyloxy)naphthalen-2-yl)-2-hydroxyacetamide trifluoroacetate] fall in the same range of pIC50: 5.00 to 6.00 for the first, 5.00 to 6.00 for the second.
